Like-named read-outs stand apart in the source and are kept apart here. Ends that are not written are not given here.
Assays:
[1] = Body weight gains of rats in the adjuvant-induced arthritis study; type: in vivo, male Sprague-Dawley rats
Description: (§1) Rats weighting between 150-200 g were purchased from Animal Technologies Ltd., Kent, Wash. They were male Sprague-Dawley rats. The animals were kept individually in stainless steel cages with free access to water and feed (Harlan Teklan Rodent Diet). The light cycle was maintained at 12 hours light and 12 hours dark. The temperature was maintained at 22° C.±3° C. with a relative humidity of 40 to 70%.
The test materials were given orally (by gavage) to each of 5 rats per treatment group once per day for 10 days. Administration of the test materials was initiated on the day of sensitization.
(§2) The left hind paw was measured just before sensitization and again on Day 10. The plantar edema inhibitory rate and the body weight gain rate was determined by comparison with the non-sensitized rat groups.

[2] = tested on: Adjuvant Induced Arthritis in Rats; experiment: Adjuvant-induced arthritis model in rats (paw weight, inhibition of inflammation); type: in vivo, male Sprague-Dawley rats
Description: Adjuvant-induced arthritis responds to both steroids and non-steroids. The degree of inflammation will be assessed by measuring differences in foot weight and/or the foot volume.
as §1
[…] The test compound and hydrocortisone were given by gavage.
Male Sprague-Dawley rats (150-200 g) were sensitized by injecting Fruend's complete adjuvant (0.5% suspension of killed mycobacterium tuberculosis (H37RA, Difco, in mineral oil)). A 0.1 ml aliquot was administered intradermally at a plantar site on the right hind leg of each rat.
The test materials were given orally (by gavage) to each of 5 rats per treatment group once per day for 10 days. […]
as §2
The paw weights for each group were averaged. Anti-inflammatory activity was determined by comparing paw weights calculated as follows: […]

[3] = mice
Description: One tenth (0.1 ml) of the above suspension is inoculated into the left hind leg muscle (hamstring muscle mass) of each mouse. The inoculated mice are placed into one large cage and then randomly segregated into groups of five mice. The mice are housed in shoe box cages on wood shavings with free access to water and laboratory chow. The mice are weighed on the day of inoculation, on day 7, day 12, at time of sacrifice.

| Compound | Body Weight Gains of Rats ([1]; 10 mg/kg by gavage once per day for 10 days) | % Inhibition ([2]; 10 mg/kg by gavage once per day for 10 days, adjuvant-induced inflammation, rats) | Raw Paw Weight ([2]; rats sensitized with Freund's complete adjuvant, oral gavage once per day for 10 days, Day 10, dose for this column not stated) | Body Weight Gains of Rats ([1]; 1 mcg/kg by gavage once per day for 10 days) | Body Weight Gains of Rats ([1]; 10 mcg/kg by gavage once per day for 10 days) | weight loss (in words) ([1]; rats, 10 mcg/kg and 1 mcg/kg by gavage for 10 days) | Average Weight Gain ([3]; 1 mcg/kg dose by gavage for 11 days) | Average Weight Gain ([3]; 10 mcg/kg dose by gavage for 11 days) | weight gain associated with administration versus control (in words) ([3]; gavage for 11 days) |
| --- | --- | --- | --- | --- | --- | --- | --- | --- | --- |
| C[C@]12CCC(=O)C=C1CC[C@@H]1[C@@H]2[C@@H](O)C[C@@]2(C)[C@H]1CC[C@]2(O)C(=O)CO [Hydrocortisone] | 22.2 | 95.6% | 0.69 g |  |  |  |  |  |  |
| YGSRS [Peptide, tyrosine-glycine-serine-arginine-serine] |  |  |  | 40.1 | 39.4 | without inducing weight loss | 1.85 g | 1.87 g | comparable to the control |

Reference: US7390874B2 (Kuboyama Bio Ken, Inc., priority 2003, dated 2008)
